Here are results for one compound from patent US8455663B2, “Halosubstituted aryloxyalkylimidazolines for use as pesticides” (Syngenta Crop Protection LLC, priority 2007, dated 2013).

Holding throughout (format): in vivo
In experiment [1] the test system is T. Urticae. As to the kind of experiment: Tetranychus urticae bean leaf disc test, comparison with prior art compounds A and B. Conditions: 12.5 ppm spray on bean leaf discs; mixed ages; 8 days; egg, larval and adult mortality. From the text:
4.4.2 In a further test, the efficacy of one of the compounds giving 100% control in Example 4.4.1 above was compared to the efficacy of imidazoline compounds from the prior art (compounds A and B).
Bean leaf discs on agar in 24-well microtiter plates were sprayed with test solutions at an application rate of 12.5 ppm. After drying, the leaf discs are infested with mite populations of mixed ages. 8 days later, discs are checked for egg mortality, larval mortality, and adult mortality.

For experiment [2], the system named is Heliothis virescens. As to the kind of experiment: Heliothis virescens (tobacco budworm) egg/larvae test on artificial diet. Conditions: Heliothis virescens, 96 h; 200 ppm by pipetting on eggs (0-24 h old) on artificial diet; 4 days; egg mortality, larval mortality, growth regulation; read-out: control of Heliothis virescens. How it is done: 4.1 Heliothis Virescens (Tobacco Budworm):
Eggs (0-24 h old) were placed in 24-well microtiter plate on artificial diet and treated with test solutions at an application rate of 200 ppm by pipetting. After an incubation period of 4 days, samples were checked for egg mortality, larval mortality, and growth regulation.

Experiment [3] concerns Tetranychus urticae. As to the kind of experiment: Tetranychus urticae (two-spotted spider mite) bean leaf disc spray test. Particulars: Tetranychus urticae, foliar, 192 h; 200 ppm spray on bean leaf discs; mixed ages; 8 days; egg, larval and adult mortality; read-out: control of Tetranychus urticae. From the text:
4.4 Tetranychus Urticae (Two-Spotted Spider Mite):
4.4.1 Bean leaf discs on agar in 24-well microtiter plates were sprayed with test solutions at an application rate of 200 ppm. After drying, the leaf discs are infested with mite populations of mixed ages. 8 days later, discs are checked for egg mortality, larval mortality, and adult mortality.

The subject of experiment [4] is Myzus persicae. Kind of experiment: Myzus persicae (green peach aphid) sunflower leaf disc spray test. Conditions: Myzus persicae, foliar, 144 h; 200 ppm spray on sunflower leaf discs; mixed ages; 6 DAT; mortality; read-out: control of Myzus persicae. The method, then: 4.2 Myzus Persicae (Green Peach Aphid):
Sunflower leaf discs were placed on agar in a 24-well microtiter plate and sprayed with test solutions at an application rate of 200 ppm. After drying, the leaf discs were infested with an aphid population of mixed ages. After an incubation period of 6 DAT, samples were checked for mortality.

For experiment [5], the system named is Myzus persicae. As to the kind of experiment: Myzus persicae (green peach aphid) pea seedling root uptake test. Particulars: Myzus persicae, 144 h; 24 ppm test solution, roots of infested pea seedlings; 6 days; mortality; read-out: control of Myzus persicae. From the text: 4.3 Myzus Persicae (Green Peach Aphid):
Roots of pea seedlings, infested with an aphid population of mixed ages, were placed directly in the test solutions of 24 ppm. 6 days after introduction, samples were checked for mortality.

In turn, `CCC(Oc1cccc(C(F)(F)F)c1Cl)C1=NCCN1` (centres unmarked) [Compound 1.001, 2-[1-(2-Chloro-3-trifluormethyl-phenoxy)-propyl]-4,5-dihydro-1H-imidazole] registered a Control % in experiment [1] of 80%. Moreover, the pest or weed control at 200 ppm in experiment [2] is 50%; in experiment [3], 100%; in experiment [4], 100%. Besides, the pest or weed control at 24 ppm in experiment [5] is 100%.
